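All cell lines were grown in 96-well plates and treated with compound for 48 hours. Abbreviation: GI50, concentration required for 50% inhibition of growth.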 Calls of active or inactive are those of the source. Rule as the data show it: active = GI50 up to about 1.1 µM and inactive = higher.
Columns and labels:
Assay in all cases: inhibition of tumour cell growth, NCI panel, 48 h
786-0 = tested on: 786-0
ACHN = tested on: ACHN
BT-549 = tested on: BT-549
CAKI-1 = tested on: CAKI-1
HCT-15 = tested on: HCT-15
LOX IMVI = tested on: LOX IMVI
MCF7 = tested on: MCF7
MDA-N = tested on: MDA-N
NCI-H522 = tested on: NCI-H522
NCI/ADR-RES = tested on: NCI/ADR-RES
OVCAR-3 = tested on: OVCAR-3
OVCAR-4 = tested on: OVCAR-4
OVCAR-8 = tested on: OVCAR-8
RPMI-8226 = tested on: RPMI-8226
SF-295 = tested on: SF-295
SK-MEL-28 = tested on: SK-MEL-28
SN12C = tested on: SN12C
SNB-75 = tested on: SNB-75
T47D = tested on: T47D
U-251 = tested on: U-251

Compound | GI50 (786-0) | GI50 (ACHN) | GI50 (BT-549) | GI50 (CAKI-1) | GI50 (HCT-15) [µM] | GI50 (LOX IMVI) | GI50 (MCF7) | GI50 (MDA-N) | GI50 (NCI-H522) | GI50 (NCI/ADR-RES) | GI50 (OVCAR-3) | GI50 (OVCAR-4) | GI50 (OVCAR-8) | GI50 (RPMI-8226) | GI50 (SF-295) | GI50 (SK-MEL-28) | GI50 (SN12C) | GI50 (SNB-75) | GI50 (T47D) | GI50 (U-251)
O=C(c1ccc([N+](=O)[O-])cc1)N1CCCC1 | > 100 µM (inactive) | > 100 µM (inactive) | > 100 µM (inactive) | > 100 µM (inactive) | > 100 | > 100 µM (inactive) | > 100 µM (inactive) | > 100 µM (inactive) | > 100 µM (inactive) | > 100 µM (inactive) | > 100 µM (inactive) | > 100 µM (inactive) | > 100 µM (inactive) | > 100 µM (inactive) | > 100 µM (inactive) | > 100 µM (inactive) | 17.7 µM (inactive) | > 100 µM (inactive) | > 100 µM (inactive) | > 100 µM (inactive)
N#CC(NCCO)=C1C(=O)c2ccccc2C1=O | > 100 µM (inactive) | > 100 µM (inactive) | > 100 µM (inactive) | > 100 µM (inactive) | > 100 | > 100 µM (inactive) | > 100 µM (inactive) | > 100 µM (inactive) | > 100 µM (inactive) | > 100 µM (inactive) | > 100 µM (inactive) | > 100 µM (inactive) | > 100 µM (inactive) | > 100 µM (inactive) | > 100 µM (inactive) | > 100 µM (inactive) | > 100 µM (inactive) | > 100 µM (inactive) | > 100 µM (inactive) | > 100 µM (inactive)
O=C(CC(O)(C(F)(F)F)C(F)(F)F)c1cccs1 | > 10 µM (inactive) | > 10 µM (inactive) | > 10 µM (inactive) | > 10 µM (inactive) | > 10 | > 10 µM (inactive) | > 10 µM (inactive) | > 10 µM (inactive) | > 10 µM (inactive) | > 10 µM (inactive) | > 10 µM (inactive) | > 10 µM (inactive) | > 10 µM (inactive) | > 10 µM (inactive) | > 10 µM (inactive) | > 10 µM (inactive) | > 10 µM (inactive) | > 10 µM (inactive) | > 10 µM (inactive) | > 10 µM (inactive)
Cc1nc2ccc(Cl)cc2c2c1CCO2 | > 100 µM (inactive) | 86.5 µM (inactive) | 92.9 µM (inactive) | 43.4 µM (inactive) | 90.2 | 67.5 µM (inactive) | > 100 µM (inactive) | 36.3 µM (inactive) | > 100 µM (inactive) | > 100 µM (inactive) | 91.6 µM (inactive) | > 100 µM (inactive) | 99.5 µM (inactive) | > 100 µM (inactive) | 75.7 µM (inactive) | > 100 µM (inactive) | > 100 µM (inactive) | 69.3 µM (inactive) | 88.7 µM (inactive) | > 100 µM (inactive)
O=C1Nc2ccccc2/C1=N/Nc1c(F)c(F)c(F)c(F)c1F | 22 µM (inactive) | 18 µM (inactive) | > 100 µM (inactive) | 30.8 µM (inactive) | 29.9 | 31.2 µM (inactive) | 36.6 µM (inactive) | 32.2 µM (inactive) | 14.4 µM (inactive) | 70.1 µM (inactive) | > 100 µM (inactive) | 82 µM (inactive) | 41.9 µM (inactive) | 3.83 µM (inactive) | > 100 µM (inactive) | > 100 µM (inactive) | 36.5 µM (inactive) | 91.4 µM (inactive) | 22 µM (inactive) | > 100 µM (inactive)
CNC1C(O)C(NC)C2OC3(O)C(=O)CC(C)OC3OC2C1O (stereo not given) | > 100 µM (inactive) | > 100 µM (inactive) | > 100 µM (inactive) | > 100 µM (inactive) | > 100 | > 100 µM (inactive) | > 100 µM (inactive) | > 100 µM (inactive) | > 100 µM (inactive) | > 100 µM (inactive) | > 100 µM (inactive) | > 100 µM (inactive) | > 100 µM (inactive) | > 100 µM (inactive) | > 100 µM (inactive) | > 100 µM (inactive) | > 100 µM (inactive) | > 100 µM (inactive) | > 100 µM (inactive) | > 100 µM (inactive)
CC(C)NC(=O)OCc1c(COC(=O)NC(C)C)c(-c2ccc[n+](COC(=O)C(C)C)c2)n2c1CCC2 | 34.6 µM (inactive) | 29.1 µM (inactive) | 81.1 µM (inactive) | 17.3 µM (inactive) | > 71.9 | 37.7 µM (inactive) | 55.6 µM (inactive) | > 100 µM (inactive) | 34.5 µM (inactive) | 63.7 µM (inactive) | > 67.8 µM (inactive) | > 87.3 µM (inactive) | > 72.8 µM (inactive) | 55.2 µM (inactive) | 68.9 µM (inactive) | > 100 µM (inactive) | 37.5 µM (inactive) | 52.1 µM (inactive) | > 81.3 µM (inactive) | > 75.5 µM (inactive)
CC(=O)C1=C(C)N(c2ccccc2)C2(O)C3=C(C(=O)c4ccccc4C3=O)C(O)=CC12Cl (stereo not given) | 4.63 µM (inactive) | 5.11 µM (inactive) | 8.11 µM (inactive) | 4.05 µM (inactive) | 3.73 | 3.56 µM (inactive) | 3.61 µM (inactive) | 2.94 µM (inactive) | 2.55 µM (inactive) | 3.73 µM (inactive) | 4.2 µM (inactive) | 3.08 µM (inactive) | 4.08 µM (inactive) | 0.855 µM (active) | 11.1 µM (inactive) | 6.73 µM (inactive) | 4.46 µM (inactive) | 4.28 µM (inactive) | 35.2 µM (inactive) | 4.76 µM (inactive)
CCN(CC)CCn1ccc(=O)c2cc3c(=O)ccn(CCN(CC)CC)c3c(C)c21 | 1.92 µM (inactive) | 4.02 µM (inactive) | 14.5 µM (inactive) | 7.4 µM (inactive) | 3.38 | 2.84 µM (inactive) | 20.8 µM (inactive) | 5.57 µM (inactive) | 6.37 µM (inactive) | 1.41 µM (inactive) | 8.55 µM (inactive) | 2.02 µM (inactive) | 2.87 µM (inactive) | 2.1 µM (inactive) | 4.47 µM (inactive) | 19.9 µM (inactive) | 5.65 µM (inactive) | 9.91 µM (inactive) | 25.1 µM (inactive) | 5.89 µM (inactive)
OC1(c2ccccc2)CCN(Cc2c[nH]c3ccccc23)CC1 | 44 µM (inactive) | > 100 µM (inactive) | > 100 µM (inactive) | > 100 µM (inactive) | 49.5 | 76.4 µM (inactive) | 50.5 µM (inactive) | 30.7 µM (inactive) | > 100 µM (inactive) | > 100 µM (inactive) | > 100 µM (inactive) | > 100 µM (inactive) | > 100 µM (inactive) | 39.5 µM (inactive) | 92.7 µM (inactive) | 20.7 µM (inactive) | > 100 µM (inactive) | > 100 µM (inactive) | 35.6 µM (inactive) | 64.4 µM (inactive)
N#Cc1nc(C#N)c(N)[nH]1 | > 100 µM (inactive) | > 100 µM (inactive) | > 100 µM (inactive) | > 100 µM (inactive) | > 100 | > 100 µM (inactive) | > 100 µM (inactive) | > 100 µM (inactive) | > 100 µM (inactive) | > 100 µM (inactive) | > 100 µM (inactive) | > 100 µM (inactive) | > 100 µM (inactive) | > 100 µM (inactive) | > 100 µM (inactive) | > 100 µM (inactive) | > 100 µM (inactive) | > 100 µM (inactive) | > 100 µM (inactive) | > 100 µM (inactive)
CC(C)(C)OC(=O)c1ccc(NCC2=CC(=O)C=CC2=O)cc1 | 9.35 µM (inactive) | 10.1 µM (inactive) | 11.6 µM (inactive) | 1.48 µM (inactive) | 7.18 | 10.7 µM (inactive) | 0.706 µM (active) | 12.5 µM (inactive) | 1.63 µM (inactive) | 8.93 µM (inactive) | 4.15 µM (inactive) | 8.85 µM (inactive) | 13 µM (inactive) | 2.48 µM (inactive) | 23 µM (inactive) | 15.6 µM (inactive) | 11.4 µM (inactive) | 8.28 µM (inactive) | 1.95 µM (inactive) | 14 µM (inactive)
O=C(NN1CCCCC1)c1cc2cc(CCl)ccc2oc1=O | 16.5 µM (inactive) | 44.5 µM (inactive) | 19.3 µM (inactive) | 18.1 µM (inactive) | 17.7 | 18.5 µM (inactive) | 38.7 µM (inactive) | 15.7 µM (inactive) | 8.75 µM (inactive) | 23.1 µM (inactive) | 20.4 µM (inactive) | 18.4 µM (inactive) | 22.1 µM (inactive) | 24 µM (inactive) | 20.1 µM (inactive) | 29.3 µM (inactive) | 18.4 µM (inactive) | 18.6 µM (inactive) | 20.9 µM (inactive) | 16.9 µM (inactive)
CN(C)CCn1c(=O)c2ccc(NCCNCCO)c3c(=O)c4cc(O)ccc4n(c1=O)c23 | 0.617 µM (active) | 0.571 µM (active) | 10.9 µM (inactive) | 0.938 µM (active) | 5.31 | 0.91 µM (active) | 0.465 µM (active) | 2.2 µM (inactive) | 0.281 µM (active) | 17.1 µM (inactive) | 2.55 µM (inactive) | 0.895 µM (active) | 1.12 µM (inactive) | 1.18 µM (inactive) | 1.6 µM (inactive) | 4.43 µM (inactive) | 0.308 µM (active) | 1.2 µM (inactive) | 2.31 µM (inactive) | 0.931 µM (active)

— ChEMBL document CHEMBL1201862, “PubChem BioAssay data set” (2004)
